# Columns and labels:
# Type in all cases: cell-based
# [1] = tested on: Staphylococcus aureus (ATCC 29213); experiment: Antimicrobial activity (MBC), S. aureus; details: saline pH 7, 1 h at room temperature, 1.0×10^5 to 1.0×10^6 CFU/mL
# Method: (§1) Antimicrobial activity of certain compounds of the present disclosure was tested against Escherichia coli (ATCC 25922), Staphylococcus aureus (ATCC 29213), and Candida albicans (ATCC 10231). The microbial cultures were diluted in sterile saline pH 7 to prepare inocula. Test compounds were titrated by stepwise two-fold dilutions in sterile saline pH 7. A total of 1.0×10^5 to 1.0×10^6 Colony Forming Units (CFU)/mL microbe was added to each tube, mixed by gentle vortexing, and then incubated at room temperature for 1 h. Microbial plating on Petri dishes (Tryptic Soy agar or Saboraud's Dextrose agar) was performed immediately after the designated exposure after neutralization of the test article dilutions in Dey-Engley Broth. Plates were incubated at 37° C., and the numbers of microbes were counted by direct colony count to quantitate the surviving microbes as CFU/mL. Positive growth controls were made with sterile 0.9% saline. Compounds were dissolved phosphate buffered saline (PBS) at pH 7 (using HCl and/or NaOH as needed). All compounds were tested three times.
# [2] = tested on: Escherichia coli (ATCC 25922); experiment: Antimicrobial activity (MBC), E. coli; details: saline pH 7, 1 h at room temperature, 1.0×10^5 to 1.0×10^6 CFU/mL
# Method: as §1
# [3] = tested on: Candida albicans (ATCC 10231); experiment: Antimicrobial activity (MFC), C. albicans; details: saline pH 7, 1 h at room temperature, 1.0×10^5 to 1.0×10^6 CFU/mL
# Method: as §1
# L929 cells = experiment: Cytotoxicity CT50 in L929 cells
Structure (SMILES),MBC/MFC S. aureus [1],MBC/MFC E. coli [2],MBC/MFC C. albicans [3],CT50 L929 cells (L929 cells)
"CN1CC(C)(CCl)N(Cl)C1=O (stereo not shown) [Compound 36-02, 3-Chloro-4-(chloromethyl)-1,4-dimethylimidazolidin-2-one]",16 µg/mL,8 µg/mL,512 µg/mL,0.04 mM
"O=C1OCC(CCl)(CCl)N1Cl [Compound 36-06, 3-chloro-4,4-bis(chloromethyl)oxazolidin-2-one]",0.5 µg/mL,1 µg/mL,16 µg/mL,0.4 mM
"CC1(CCl)COC(=O)N1Cl (stereo not shown) [Compound 36-01, 3-Chloro-4-(chloromethyl)-4-methyloxazolidin-2-one]",0.5 µg/mL,0.5 µg/mL,>128 µg/mL,0.09 mM
"CC1(CBr)COC(=O)N1Cl (stereo not shown) [Compound 36-05, 4-(bromomethyl)-3-chloro-4-methyloxazolidin-2-one]",0.5 µg/mL,1 µg/mL,64 µg/mL,0.1 mM
"CC1(CC(F)(F)F)COC(=O)N1Cl (stereo not shown) [Compound 36-08, 3-chloro-4-(2,2,2-trifluoroethyl)-4-methyl-oxazolidin-2-one]",1 µg/mL,4 µg/mL,128 µg/mL,0.232 mM
"CC1(CF)COC(=O)N1Cl (stereo not shown) [Compound 36-07, 3-chloro-4-(fluoromethyl)-4-methyl-oxazolidin-2-one]",0.5 µg/mL,0.5 µg/mL,256 µg/mL,0.142 mM
"CC1(CCl)CCC(=O)N1Cl (stereo not shown) [Compound 36-03, 1-chloro-5-(chloromethyl)-5-methylpyrrolidin-2-one]",128 µg/mL,2 µg/mL,>512 µg/mL,0.026 mM

# — patent US8729112B2, “Antimicrobial haloalkyl heterocycle compounds” (NovaBay Pharmaceuticals, Inc., priority 2011, dated 2014)
